{
  "source": "patent US20170209492A1",
  "about": "“SUBSET-OPTIMIZED CHIMERIC ANTIGEN RECEPTOR-CONTAINING T-CELLS” (NOVARTIS AG, priority 2014, published 2017)",
  "key": {"[1]": {"tested_on": "huCART19 cells co-cultured with NALM6 (Nalm-6)", "assay": "CART proliferation in 4 day co-culture assay with RAD001", "format": "cell-based, human", "conditions": "for proliferation of huCART19 cells: 4 day co-culture", "protocol": "To evaluate the functionality of CARTs, the T cells are thawed and counted, and viability is assessed by Cellometer. The number of CAR-positive cells in each culture is normalized using non-transduced T cells (UTD). The impact of RAD001 on CARTs was tested in titrations with RAD001, starting at 50 nM. The target cell line used in all co-culture experiments is NALM6 (Nalm-6), a human pre-B cell acute lymphoblastic leukemia (ALL) cell line expressing CD19 and transduced to express luciferase.\nFor measuring the proliferation of CARTs, T cells are cultured with target cells at a ratio of 1:1. The assay is run for 4 days, when cells are stained for CD3, CD4, CD8 and CAR expression. The number of T cells is assessed by flow cytometry using counting beads as reference."}, "[2]": {"tested_on": "NALM6-luc tumors", "assay": "NALM6-luc tumor growth with daily RAD001 dosing", "format": "in vivo, NSG mice", "conditions": "daily oral dosing of RAD001 alone, 0.3, 1, 3 and 10 mg/kg", "protocol": "NALM6-luc cells: The NALM6 human acute lymphoblastic leukemia (ALL) cell line was developed from the peripheral blood of a patient with relapsed ALL. The cells were then tagged with firefly luciferase. These suspension cells grow in RPMI supplemented with 10% heat inactivated fetal bovine serum.\nMice: 6 week old NSG (NOD.Cg-PrkdcscidIl2rgtmlWj1/SzJ) mice were received from the Jackson Laboratory (stock number 005557).\n(§1) Tumor implantation: NALM6-luc cells were grown and expanded in vitro in RPMI supplemented with 10% heat inactivated fetal bovine serum. The cells were then transferred to a 15 ml conical tube and washed twice with cold sterile PBS. NALM6-luc cells were then counted and resuspended at a concentration of 10×10^6 cells per milliliter of PBS. The cells were placed on ice and immediately (within one hour) implanted in the mice. NALM6-luc cells were injected intravenously via the tail vein in a 100 μl volume, for a total of 1×10^6 cells per mouse.\n(§2) RAD001 dosing: A concentrated micro-emulsion of 50 mg equal to 1 mg RAD001 was formulated and then resuspended in D5W (dextrose 5% in water) at the time of dosing. Mice were orally dosed daily (via oral gavage) with 200 μl of the desired doses of RAD001."}, "[3]": {"assay": "pharmacokinetic analysis of RAD001 in blood", "format": "in vivo, NSG mice", "protocol": "as §2\nPK analysis: Mice were dosed daily with RAD001 starting 7 days post tumor implantation. Dosing groups were as follows: 0.3 mg/kg, 1 mg/kg, 3 mg/kg, and 10 mg/kg. Mice were bled on days 0 and 14 following the first and last dose of RAD001, at the following time points for PK analysis: 15 minutes, 30 minutes, 1 hour, 2 hours, 4 hours, 8 hours, 12 hours, and 24 hours."}, "[4]": {"tested_on": "huCAR19 CAR T cells", "assay": "in vivo proliferation of humanized CD19 CART cells with RAD001 dosing", "design": "species or system NSG mice", "protocol": "as §1\nCAR T cell dosing: Mice were administered 5×10^6 CAR T cells 7 days after tumor implantation. Cells were partially thawed in a 37 degree Celsius water bath and then completely thawed by the addition of 1 ml of cold sterile PBS to the tube containing the cells. The thawed cells were transferred to a 15 ml falcon tube and adjusted to a final volume of 10 mls with PBS. The cells were washed twice at 1000 rpm for 10 minutes each time and then counted on a hemocytometer. T cells were then resuspended at a concentration of 50×10^6 CAR T cells per ml of cold PBS and kept on ice until the mice were dosed. The mice were injected intravenously via the tail vein with 100 μl of the CAR T cells for a dose of 5×10^6 CAR T cells per mouse. Eight mice per group were treated either with 100 μl of PBS alone (PBS), or humanized CD19 CAR T cells.\nas §2\nBased on these doses, huCAR19 CAR T cells were dosed with and without RAD001 to determine the proliferative ability of these cells. The highest dose used was 3 mg/kg based on the levels of RAD001 in the blood 24 hours after dosing. As the concentration of RAD001 was above 10 nM 24 hours after the final dose of RAD001, several lower doses of RAD001 were used in the in vivo study with CAR T cells. The CAR T cells were dosed IV one day prior to the start of the daily oral RAD001 dosing. Mice were monitored via FACS for T cell expansion."}},
  "data": [
    {"smiles": "CO[C@H]1C[C@@H]2CC[C@@H](C)[C@@](O)(O2)C(=O)C(=O)N2CCCC[C@H]2C(=O)O[C@H]([C@H](C)C[C@@H]2CC[C@@H](OCCO)[C@H](OC)C2)CC(=O)[C@H](C)/C=C(\\C)[C@@H](O)[C@@H](OC)C(=O)[C@H](C)C[C@H](C)/C=C/C=C/C=C/1C", "note": "[RAD001, (1R,9S,12S,15R,16E,18R,19R,21R,23S,24E,26E,28E,30S,32S,35R)-1,18-dihydroxy-12-{(1R)-2-[(1S ,3R,4R)-4-(2-hydroxyethoxy)-3-methoxycyclohexyl]-1-methylethyl}-19,30-dimethoxy-15,17,21,23,29,35-hexamethyl-11,36-dioxa-4-aza-tricyclo[30.3.1.04,9]hexatriaconta-16,24,26,28-tetraene-2,3,10,14,20-pentaone]", "values": [
      {"measurement": "proliferation of huCART19 cells", "setting": "[1]; 0.0032 nM RAD001", "value": "higher than observed without the addition of RAD001"},
      {"measurement": "proliferation of huCART19 cells", "setting": "[1]; 0.016 nM RAD001", "value": "higher than observed without the addition of RAD001"},
      {"measurement": "proliferation of CAR-expressing, transduced T cells", "setting": "[1]; low doses of RAD001, 4 days of co-culture", "value": "enhanced"},
      {"measurement": "growth of NALM6-luc tumors", "setting": "[2]", "value": "did not have an impact"},
      {"measurement": "concentration at 24 h", "setting": "[3]; NSG, mouse, blood, lowest dose tested (0.3 mg/kg), oral, read-out: RAD001 concentration in the blood 24 hours after dosing", "value": "> 10", "unit": "nM"},
      {"measurement": "concentration of RAD001 24 hours after the final dose", "setting": "[3]; after the final dose of RAD001", "value": "above 10 nM"},
      {"measurement": "stability in the blood of tumor bearing mice", "setting": "[3]; daily oral dosing", "value": "fairly stable"},
      {"measurement": "RAD001 concentration in the blood 24 hours after dosing", "setting": "[3]; day 14, lowest dose tested (0.3 mg/kg), oral", "value": "above 10 nm"},
      {"measurement": "CAR T cell proliferation in vivo", "setting": "[4]; RAD001 0.003 mg/kg daily, above the normal level of huCAR19 proliferation", "value": "enhancement"},
      {"measurement": "proliferation of CD8+ CAR T cells in vivo", "setting": "[4]; lowest doses of RAD001", "value": "enhanced proliferation can be seen at early time points"},
      {"measurement": "proliferation of the CAR T cells in vivo", "setting": "[4]; lowest doses of RAD001, daily oral, huCAR19 dosed IV", "value": "enhanced proliferation"},
      {"measurement": "proliferation of CD4+ CAR T cells in vivo", "setting": "[4]; lowest doses of RAD001, compared with CD8+ CAR T cells", "value": "more evident and prolonged"}
    ]}
  ]
}
